Test results: PubChem BioAssay (NCI)
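Test compounds were applied to cells in 96-well plates for 48 hours at 5 doses. Abbreviation: GI50, concentration required for 50% inhibition of growth. TGI: total growth inhibition.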

Experiments:
Assay in all cases: NCI anticancer screen, dose series, 48 h
[1] = test system: K-562 leukemia
[2] = test system: SF-295 CNS
[3] = test system: RPMI-8226 leukemia
[4] = test system: LOX IMVI melanoma
[5] = test system: UACC-62 melanoma
[6] = test system: U251 CNS
[7] = test system: RXF 393 renal
[8] = test system: SF-539 CNS
[9] = test system: T-47D breast
[10] = test system: PC-3 prostate

Compound	GI50 [1]	TGI [1]	GI50 [2]	TGI [2]	GI50 [3]	TGI [3]	GI50 [4]	TGI [4]	GI50 [5]	TGI [5]	GI50 [6]	TGI [6]	GI50 [7]	TGI [7]	GI50 [8]	TGI [8]	GI50 [9]	TGI [9]	GI50 [10]	TGI [10]
CC(C)(C)[Si](C)(C)OC1[C@@H](COC(=O)NC(=O)CCl)O[C@@H](n2cnc3c(N)ncnc32)[C@H]1O[Si](C)(C)C(C)(C)C (some centres not stated)	1360 nM	3.36 µM	7.52 µM	14.3 µM	1540 nM	5.63 µM	410 nM	1.13 µM	6140 nM	12.7 µM	2840 nM	7.91 µM	2330 nM	7.99 µM	6.97 µM	13.6 µM	4.94 µM	11.1 µM	3.15 µM	9.79 µM
CC12O[C@H](C[C@@H](OC(=O)CCC(=O)O)[C@H]1O)n1c3ccccc3c3c4c(c5c6ccccc6n2c5c31)C(=O)NC4=O	5070 nM	> 50 µM	1.5 µM	7.6 µM	5980 nM	24.3 µM	1470 nM	7.88 µM	585 nM	7.2 µM	5710 nM	17.1 µM	598 nM	4.16 µM	1.22 µM	3.97 µM	0.83 µM	> 50 µM	3.44 µM	> 50 µM
CCOC(=O)/C=C1/SC(=Nc2ccc(C#N)cc2)N(Cc2ccco2)C1=O	3160 nM	11.4 µM	9.99 µM	26.6 µM	2400 nM	7.46 µM	1720 nM	3.32 µM	2230 nM	5.25 µM	2070 nM	4.06 µM	1480 nM	2.96 µM	3.09 µM	12.4 µM	2.57 µM	8.24 µM	3.11 µM	9.96 µM
CSc1nc2c(c(=O)n1C)C(c1ccccc1)C1=C(N2)/C(=C/c2ccccc2)CCC1 (configuration not stated)	2860 nM	> 100 µM	4.67 µM	34 µM	5310 nM	> 100 µM	3010 nM	12.8 µM	7950 nM	> 100 µM	3990 nM	34.9 µM	2350 nM	6.21 µM	9.98 µM	81.5 µM	4.15 µM	> 100 µM	7.11 µM	> 100 µM
CN1CCN(c2ccc(NC3=CC(=O)c4ncncc4C3=O)cc2)CC1	–	–	0.511 µM	1.66 µM	261 nM	0.75 µM	192 nM	0.401 µM	303 nM	0.804 µM	722 nM	1.94 µM	1290 nM	2.61 µM	0.612 µM	1.69 µM	0.231 µM	0.651 µM	0.289 µM	1.14 µM
Clc1ccc(-c2nc(NCc3ccco3)c3ccccc3n2)c(Cl)c1	8700 nM	60.4 µM	13.6 µM	33.5 µM	5640 nM	81.9 µM	8980 nM	26.8 µM	13900 nM	32.7 µM	16500 nM	47.4 µM	20400 nM	43.1 µM	–	–	45.6 µM	> 100 µM	13.9 µM	55.7 µM
CCCCCCCCN=C(NCCCCCCCC)SCc1cccc2ccccc12	975 nM	3.26 µM	1.51 µM	3.02 µM	2050 nM	4.4 µM	1590 nM	3.08 µM	1720 nM	3.22 µM	1590 nM	2.98 µM	1420 nM	2.78 µM	–	–	1.55 µM	3.01 µM	1.49 µM	2.89 µM
COc1cnccc1Nc1nc(-c2nn(Cc3c(F)cc(OCCO)cc3F)c3ccccc23)ncc1OC	645 nM	> 100 µM	7.26 µM	24.9 µM	2190 nM	55.2 µM	1840 nM	19.3 µM	–	–	1590 nM	3.76 µM	3850 nM	17.1 µM	10.7 µM	22.9 µM	16.5 µM	72.7 µM	2.55 µM	> 100 µM
COc1ccc(-c2[nH]ncc2Nc2cc(OC)c(OC)c(OC)c2)cc1	420 nM	> 52.3 µM	1.31 µM	> 21.1 µM	1380 nM	5.04 µM	6130 nM	> 100 µM	704 nM	69.8 µM	2210 nM	> 100 µM	1920 nM	> 22.3 µM	–	–	4.07 µM	> 100 µM	3.31 µM	> 100 µM
CSc1nc(SC)c2c(C)cn(COCCOC(=O)c3ccccc3)c2n1	–	–	–	> 100 µM	–	> 100 µM	–	> 100 µM	–	> 100 µM	–	> 100 µM	–	> 100 µM	–	> 100 µM	–	94.5 µM	–	> 100 µM
COc1ccc2nc3ccccc3c(NCCCCN(CCCl)CCCl)c2c1	–	–	–	18.6 µM	–	0.943 µM	–	–	–	1.42 µM	–	1.83 µM	–	0.289 µM	–	1.26 µM	–	13.8 µM	–	7.56 µM
